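Test compounds were applied to cells in 96-well plates for 48 hours at 5 doses. Abbreviation: GI50, concentration required for 50% inhibition of growth.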 Active and inactive are the calls of the source. Cut-off read from the data, not from the text of the source: active = GI50 up to about 1.1 µM and inactive = higher.
Assays:
Assay in all cases: DTP human tumour cell line panel, 48 h
COLO 205 = tested on: COLO 205
HCC 2998 = tested on: HCC 2998
HCT-116 = tested on: HCT-116
HCT-15 = tested on: HCT-15
HL-60 = tested on: HL-60
HT-29 = tested on: HT-29
Hs-578T = tested on: Hs-578T
K562 = tested on: K562
KM12 = tested on: KM12
LOX IMVI = tested on: LOX IMVI
NCI-H226 = tested on: NCI-H226
RPMI-8226 = tested on: RPMI-8226
RXF 393 = tested on: RXF 393
SK-MEL-2 = tested on: SK-MEL-2
SN12C = tested on: SN12C
SNB-19 = tested on: SNB-19
SR = tested on: SR
TK-10 = tested on: TK-10
UACC-257 = tested on: UACC-257

Structure (SMILES)	GI50 (COLO 205)	GI50 (HCC 2998)	GI50 (HCT-116)	GI50 (HCT-15) [µM]	GI50 (HL-60)	GI50 (HT-29)	GI50 (Hs-578T)	GI50 (K562)	GI50 (KM12)	GI50 (LOX IMVI)	GI50 (NCI-H226)	GI50 (RPMI-8226)	GI50 (RXF 393)	GI50 (SK-MEL-2)	GI50 (SN12C)	GI50 (SNB-19)	GI50 (SR)	GI50 (TK-10)	GI50 (UACC-257)
O=C1C(Cl)=C(Nc2ccc(OC(F)(F)F)cc2)C(=O)c2c(O)ccc(O)c21	1.2 µM (inactive)	0.544 µM (active)	0.203 µM (active)	0.366	0.182 µM (active)	0.385 µM (active)	0.719 µM (active)	0.284 µM (active)	1.5 µM (inactive)	0.262 µM (active)	1.5 µM (inactive)	0.0598 µM (active)	0.519 µM (active)	0.292 µM (active)	0.468 µM (active)	1.22 µM (inactive)	0.275 µM (active)	1.48 µM (inactive)	0.959 µM (active)
CC1(C)N=C(N)N=C(N)N1CCCCc1ccccc1	0.433 µM (active)	13.3 µM (inactive)	0.0364 µM (active)	2.92	0.431 µM (active)	0.124 µM (active)	3.21 µM (inactive)	< 0.0177 µM (active)	0.689 µM (active)	0.149 µM (active)	6.47 µM (inactive)	2.43 µM (inactive)	0.422 µM (active)	> 32.9 µM (inactive)	0.82 µM (active)	0.733 µM (active)	< 0.0334 µM (active)	1.19 µM (inactive)	1.63 µM (inactive)
CC(C)c1ccc(O)c(=O)c(O)c1.CC(C)c1ccc(O)c(=O)cc1.CC(C)c1cccc(=O)c(O)c1.CC(C)c1ccccc(=O)c1O	2.77 µM (inactive)	0.304 µM (active)	0.373 µM (active)	0.198	0.281 µM (active)	0.509 µM (active)	4.46 µM (inactive)	0.571 µM (active)	2.87 µM (inactive)	0.76 µM (active)	1.76 µM (inactive)	0.964 µM (active)	0.432 µM (active)	0.204 µM (active)	0.998 µM (active)	3.4 µM (inactive)	0.262 µM (active)	0.459 µM (active)	0.322 µM (active)
COc1cc([C@H]2Oc3c(OC)cc(CCCO)cc3[C@@H]2CO)ccc1O [DIHYDRODEHYDRODICONIFERY ALCOHOL]	> 100 µM (inactive)	> 100 µM (inactive)	> 100 µM (inactive)	> 100	> 100 µM (inactive)	> 100 µM (inactive)	47.2 µM (inactive)	> 100 µM (inactive)	> 100 µM (inactive)	> 100 µM (inactive)	> 100 µM (inactive)	55.1 µM (inactive)	> 100 µM (inactive)	> 100 µM (inactive)	> 100 µM (inactive)	> 100 µM (inactive)	> 100 µM (inactive)	> 100 µM (inactive)	43.4 µM (inactive)
N/C(S)=N/N=C/c1ccc(N)cn1	2.99 µM (inactive)	3.65 µM (inactive)	3.98 µM (inactive)	5.87	1.91 µM (inactive)	4.47 µM (inactive)	> 8.36 µM (inactive)	3.1 µM (inactive)	6.22 µM (inactive)	3.62 µM (inactive)	4.24 µM (inactive)	3.52 µM (inactive)	3.42 µM (inactive)	> 10 µM (inactive)	3.92 µM (inactive)	9.89 µM (inactive)	3.67 µM (inactive)	> 10 µM (inactive)	> 10 µM (inactive)
N=c1oc2ccc([N+](=O)[O-])cc2cc1C(=O)NCc1ccccc1	20.6 µM (inactive)	32.1 µM (inactive)	16.3 µM (inactive)	17.8	27.2 µM (inactive)	18.5 µM (inactive)	18.7 µM (inactive)	40 µM (inactive)	14.3 µM (inactive)	17.7 µM (inactive)	12.9 µM (inactive)	38.7 µM (inactive)	14.7 µM (inactive)	19.3 µM (inactive)	19.9 µM (inactive)	39 µM (inactive)	34.4 µM (inactive)	29.2 µM (inactive)	19.8 µM (inactive)

From ChEMBL document CHEMBL1201862, “PubChem BioAssay data set” (2004)
